Data set [1] can be described thus: Bioavailability in Dogs: plasma pharmacokinetics of Compound A after i.v./p.o. dosing. It counts as in vivo. To be noted: both sexes, dog, iv, Beagle dogs, 10 mg/kg. As to the method:
(§1) The following in vivo data, in rats, dogs and monkeys, exemplify the surprising improvement in bioavailability of the diester prodrugs of the present invention over the diacid of 3S,4aR,6S, 8aR-6-(((4-carboxy)phenyl)methyl)1,2,3,4,4a,5,6,7,8,8a-decahydroisoquinoline-3-carboxylic acid. Percent bioavailability is determined using the following equation: [formula]
(§2) wherein AUC represents the area under the curve, p.o. represents oral dose, and i.v. represents intravenous dose.
Beagle dogs (2 male and 1 female) were administered an oral and iv dose of 3S,4aR,6S,8aR-6-(((4-carboxy)phenyl)methyl)-1,2,3,4,4a,5,6,7,8,8a-decahydroisoquinoline-3-carboxylic acid (10 mg/kg) to determine oral bioavailability. The same three dogs were also administered an oral 10 mg/kg dose of compound 3S,4aR,6S,8aR-6-(((4-carboxy)phenyl)methyl)-1,2,3,4,4a,5,6,7,8,8a-decahydroisoquinoline-3-carboxylic acid, diethyl ester, to determine whether the prodrug would increase bioavailability. The plasma concentrations of 3S,4aR,6S,8aR-6-(((4-carboxy)phenyl)methyl)-1,2,3,4,4a,5,6,7,8,8a-decahydroisoquinoline-3-carboxylic acid were determined by LC/MS/MS. […]

Data set [2] is described as follows: Pharmacokinetic parameters of Compound A in Fischer Rats after a 10 mg/kg dose. It counts as in vivo. Particulars: rat, iv, plasma Compound A. As to the method: as §1, §2
Tables 1 and 2 below summarize the pharmacokinetic parameters found for Compounds A and B following 10 mg/kg administration (i.v. or p.o.) to Beagle Dogs and Fischer Rats respectively.

Data set [3] in a line: Bioavailability in Cynomolgus Monkeys: plasma pharmacokinetics of Compound A after i.v./p.o. dosing. To be noted: cynomolgus monkey, in vivo. Here is the method:
as §1, §2
Four female monkeys were administered an oral and iv dose of compound A (oral: 10 mg/kg; iv: 1 mg/kg) to determine oral bioavailability. The same animals were also administered an oral 10 mg/kg dose of compound B. The plasma concentrations of compound A were determined by LC/MS/MS.
Four female cynomolgus monkeys were given a single iv dose of compound A (1 mg/kg) on day 0, a single oral dose of compound A (10 mg/kg) on day 6 and a single oral dose of compound B (10 mg/kg) on day 10. Blood was collected at 0.5, 1, 2, 3, 4, 5, 6 and 8 hours post dose for oral dosing and 0.167, 0.33, 0.67, 1, 1.5, 2, 3 and 4 hours post dose for iv dosing. Dosing solutions for compound A and compound B were prepared in water. […] Measurable levels of drug (>10 ng/ml) were still present 8 hours post dose. […] Bioavailability was estimated at 34.8%.

Bounds are passed on as bounds.

In data set [1], `O=C(O)c1ccc(C[C@H]2CC[C@H]3CN[C@H](C(=O)O)C[C@H]3C2)cc1` [Compound A, 3S,4aR,6S,8aR-6-(((4-carboxy)phenyl)methyl)-1,2,3,4,4a,5,6,7,8,8a-decahydroisoquinoline-3-carboxylic acid] displayed an AUC of 41400 ng·h/mL and a peak concentration (Cmax) of 28800 ng/mL. In data set [2], this molecule registered an exposure (AUC) of 2410 ng·h/mL and a maximum concentration (Cmax) of 6280 ng/mL. Further, the “levels of drug in plasma at 0.5 hr” value in data set [3] (po, 10 mg/kg) is listed as “measurable levels of drug were detected”. In data set [3] (female, iv, 1 mg/kg), the AUC stood at 1190 ng·h/mL, the Cmax was found to be 1920 ng/mL, the clearance was determined as 14 mL/min/kg and the half-life was 42 min. Also, in data set [3] (female, po, 10 mg/kg), the “% Bioavail” value is 11.1%, the AUC is given as 1,320 ng hr/mL, the Cmax is 127 ng/mL and the Improvement is 1 X. Further, in data set [3] (female, po, 10 mg/kg), the Tmax was found to be 60 min and the concentration at 8 h is over 10 ng/mL.

In the case of `CCOC(=O)c1ccc(C[C@H]2CC[C@H]3CN[C@H](C(=O)OCC)C[C@H]3C2)cc1.Cl` [Compound B, 3S,4aR,6S, 8aR-6-(((4-carboxy)phenyl)methyl)-1,2,3,4,4a,5,6,7,8,8a-decahydroisoquinoline-3-carboxylic acid HCl, diethyl ester], in data set [3] (po, 10 mg/kg), the “plasma levels of compound B (unchanged prodrug)” value is “No detectable plasma levels”. In data set [3] (female, po, 10 mg/kg), the “% Bioavail” value is given as 34.8%, the exposure (AUC) is on record as 4,149 ng hr/mL, the Improvement is recorded as 3.1X and the “increase in the bioavailability” value was determined as 3.1 fold.

Values taken from US6486175B1, “Diester prodrugs of a decahydroisoquinoline-3-carboxylic acid” (Eli Lilly and Company, priority 1999, dated 2002).
